Experiment [1] deals with Glioma. The settings on record: Rattus norvegicus.
Description: Compound's ability to selectively deliver the requisite amounts of boron to tumors (cellular uptake of boron by the rat F98 Glioma cells at 16h was determined.)
The test system of experiment [2] is Glioma. The settings on record: Rattus norvegicus. The source holds these as a separate data set.
Description: Compound's ability to selectively deliver the requisite amounts of boron to tumors(amount of boron present in media in rat F98 Glioma cells at 0h after incubation with the compound.)

Turning to “1-[5-(1,2,3,4,5,6,7,8,9,10decabora-Cyclododec-11-en-11-ylmethoxymethyl)-3,4-dihydroxy-tetrahydro-furan-2-yl]-1H-pyrimidine-2,4-dione”, the Cellular uptake of boron at 16h (ug of B (g of cells)-1) with Glioma [1] is 83.8. In addition, in the experiment with Glioma [2], the Boron in media at 0h was 6.75 µg of B/ml.
On the same counts, the results for “4-(1,2,3,4,5,6,7,8,9,10decabora-Cyclododec-11-en-11-ylmethoxy)-6-hydroxymethyl-tetrahydro-pyran-2,3,5-triol” are 65.2 and 6.75 µg of B/ml.
Turning to “1-[4-Hydroxy-5-hydroxymethyl-3-(1,2,3,4,5,6,7,8,9nonabora-cycloundec-10-en-10-ylmethoxy)-tetrahydro-furan-2-yl]-1H-pyrimidine-2,4-dione”, the Cellular uptake of boron at 16h (ug of B (g of cells)-1) in the experiment with Glioma [1] came out at 1.5. In the experiment on Glioma [2], the Boron in media at 0h was 6.75 µg of B/ml.
With “1-[4-(1,2,3,4,5,6,7,8,9,10decabora-Cyclododec-11-en-11-ylmethoxy)-3-hydroxy-5-hydroxymethyl-tetrahydro-furan-2-yl]-1H-pyrimidine-2,4-dione”, the Cellular uptake of boron at 16h (ug of B (g of cells)-1) in the experiment with Glioma [1] stood at 96.2. The Boron in media at 0h in the experiment on Glioma [2] was 6.75 µg of B/ml.
The corresponding values for “1-[3-(1,2,3,4,5,6,7,8,9,10decabora-Cyclododec-11-en-11-ylmethoxy)-4-hydroxy-5-hydroxymethyl-tetrahydro-furan-2-yl]-1H-pyrimidine-2,4-dione” are 104 and 6.75 µg of B/ml.

The values above are taken from ChEMBL document CHEMBL1126184, “Synthesis and in vitro evaluation of boronated uridine and glucose derivatives for boron neutron capture therapy” (1992).
